From patent publication US20080200403A1, “9A-Carbamoyl and Thiocarbamoyl Azalides with Anti-Inflammatory Activity” (GLAXOSMITHKLINE, priority 2005, published 2008)
Like-named read-outs stand apart in the source and are kept apart here.

Assays:
human granulocytes = assay: Oxidative burst inhibition assay on granulocytes (luminol); format: cell-based; settings: Homo sapiens; for inhibition at 12.5 µM: compound 12.5 μM; for inhibition at 50 µM: compound 50 μM
Protocol: (§1) Granulocytes were obtained from heparinized whole blood using density gradient centrifugation. Erythrocytes were sedimented on 3% dextran T-500 (Amersham Pharmacia Biotech AB, Uppsala, Sweden). Leukocytes were centrifuged on Ficoll (Amersham Pharmacia Biotech AB, Uppsala, Sweden) for 35 min at 600 g at 20° C. The pellet of granulocytes was cleared from remaining erythrocytes by a brief hypotonic lysis.
The effect of compounds on oxidative burst was investigated in vitro with oxidative burst assay in human granulocytes, isolated as described above. Assay was done in 96 well plate. Blood was obtained from healthy volunteers (Transfusion Center, Croatia) and human granulocytes were isolated by dextran sedimentation and ficoll extraction method, as described above. In each well 50000 isolated granulocytes were suspended in 100 μL of DMEM. Final concentrations of the tested compounds were 50 and 12.5 μM. Than, 50 μL of luminol (c=0.25 mg/mL) was added. Luminol as a detector of oxidative burst react with superoxide and light is produced as one of the reaction products. Subsequently, 50 μL of stimuli, phorbol-12-myristate acetate (PMA) (c=33 ng/mL) or Zymosan (c=120 μg/mL), were added.

granulocytes = assay: Inhibition of degranulation of granulocytes (elastase release); format: cell-based, human; settings: Homo sapiens, compound 50 μM, read-out: Percentage of inhibition of degranulation of granulocytes
Protocol: as §1
1×10^6 granulocytes, isolated as described above, were resuspended in RPMI-1640 medium (Institute of Immunology, Croatia), and were incubated with 10 or 50 μM of test compound together with cytochalasine B (5 μg/mL) for 2 h at 37° C. Degranulation then was induced by the addition of 0.1 μM fMLP (Sigma, USA) or 0.5 μM A23187 (Calbiochem, USA). The activity of free neutrophil elastase was determined with a chromogenic substrate specific for human neutrophil elastase, such as n-methoxysuccinyl-1-alanyl-1-alanyl-1-prolyl-lvalyl-p-niytoanlide (Sigma Chemical Company, St Louis, Mo., USA) Elastase activity, as a marker of primary granules, was assessed in supernatant using a spectrophotometer at an absorbance of 405 nm. Results are expressed as the percent of inhibition of degranulation in unstimulated cells, and in stimulated cells treated with fMLP or A23187.

A549 = assay: MTT cytotoxicity assay on A549 cell line; format: cell-based; settings: human, 24 h
Protocol: (§2) To determine whether the anti-inflammatory activity of the test compounds was due to observed inhibition of cytokine production and inhibition of proliferation in vitro, and was not a consequence of cellular cytotoxicity, measurement of succinate dehydrogenase activity in living cells was performed. Cells were cultured for 24 h in RPMI medium as described above at 37° C. in the presence of the test compounds at concentrations of 50 μM and 12.5 μM. MTT [3-(4,5-dimethylthiazole-2-yl)-2,5-diphenyl tetrazolium bromide] (Promega, USA), a detection reagent, was then added and the cultures were incubated for 0.5-2 h. The amount of MTT-Formazan produced was determined using a spectrophotometer at 490 nm (Mosmann, J. Imnunol. Methods, 1983, 65: 55-63). Percentage of viable cells was calculated using the following formula:
(§3) % viable cells=([…]OD490 treated cells/OD490 nontreated cells)×100

Hep G2 = assay: MTT cytotoxicity assay on Hep G2 cell line; format: cell-based; settings: human, 24 h
Protocol: as §2, §3

IL-8 = assay: Inhibition of IL-8 production by stimulated human peripheral blood leukocytes in vitro; format: cell-based; settings: Homo sapiens, Leukocyte, PBL, read-out: Percentage of inhibition of IL-8 production; for inhibition at 10 µM: compound 10 μM; for inhibition at 50 µM: compound 50 μM
Protocol: (§4) Test substances used in in vitro experiments were dissolved in dimethyl sulfoxide (DMSO) (Kemika, Croatia) at concentrations of 50 mM and 10 mM, and were further diluted to final concentrations of 50 μM and 10 μM in 1 mL Dulbecco's modified Eagle medium (DMEM) supplemented with 1% heat inactivated fetal bovine serum (FBS), 1% L-glutamine, 50 U/ml penicillin, 50 μg/ml streptomycin and 2.5 μg/mL Fungizone (amphotericin B). Media and all media supplements were purchased from Gibco, Australia, except the FBS was purchased from Sigma, USA.
(§5) Peripheral blood leukocytes (PBL) were obtained from venous blood of healthy volunteers by sedimentation on 2% dextran T-500 (Amersham Biosciences, USA) and subsequent centrifugations of leukocyte rich plasma.
(§6) Peripheral blood leukocytes (PBL), isolated as described above, were seeded in a 48-well plate at a concentration of 3 to 5×10^6 cell per well in culture medium consisting of RPMI 1640 medium (Institute of Immunology, Croatia) supplemented with 10% heat-inactivated fetal calf serum (FCS, Biowhittaker, USA), 100 U/ml penicillin (Gibco, Australia), 100 μg/ml streptomycin (Gibco, Australia) and 2 mM L-glutamine (Gibco, Australia), and preincubated with the test compounds for 2 h at 37° C., in an atmosphere of 5% CO2, and 90% humidity. Then, stimuli (Sigma, USA) were added to a final concentration of 2 μg/mL lipopolysaccharide (LPS), 1 μg/mL phorbol 12-myristate 13-acetate (PMA) or 120 μg/mL zymosan. Samples were incubated overnight under conditions described above. At the end of incubation, the supernatants were transferred to eppendorf tubes and centrifuged for 10 min at 1500×g. Concentrations of human TNF-α, IL-1β, IL-6 and IL-8 were determined in cell supernatants by sandwich ELISA, using capture and detection antibodies (R&D Systems, Minneapolis, Minn.) according to the manufacturer's recommendations.
(§7) Inhibition (as percentage) was calculated using the following formula: % inhibition=(1−concentration of cytokines in sample/concentration of cytokines in positive control)×100. The positive control refers to stimulated samples, not treated with substances.

TNF-α = assay: Inhibition of TNF-α production by stimulated human peripheral blood leukocytes in vitro; format: cell-based; settings: Homo sapiens, Leukocyte, PBL, read-out: Percentage of inhibition of TNF-α production; for inhibition at 10 µM: compound 10 μM; for inhibition at 50 µM: compound 50 μM
Protocol: as §4, §5, §6, §7

IL-1α = assay: Inhibition of IL-1 production by stimulated human peripheral blood leukocytes in vitro; format: cell-based; settings: Homo sapiens, Leukocyte, PBL, read-out: Percentage of inhibition of IL-1α production; for inhibition at 10 µM: compound 10 μM; for inhibition at 50 µM: compound 50 μM
IL-6 = assay: Inhibition of IL-6 production by stimulated human peripheral blood leukocytes in vitro; format: cell-based; settings: Homo sapiens, Leukocyte, PBL, read-out: Percentage of inhibition of IL-6 production; for inhibition at 10 µM: compound 10 μM; for inhibition at 50 µM: compound 50 μM
Protocol: as §4, §5, §6, §7

[1] = PMA stimulated granulocytes, read-out: % inhibition of Oxidative burst PMA
[2] = Zymosan stimulated granulocytes, read-out: % inhibition of Oxidative burst Zymosan

CC[C@H]1OC(=O)[C@H](C)[C@@H](O[C@H]2C[C@@](C)(OC)[C@@H](O)[C@H](C)O2)[C@H](C)[C@@H](O[C@@H]2O[C@H](C)C[C@H](N(C)C)[C@H]2O)[C@](C)(O)C[C@@H](C)C(=O)[C@H](C)[C@@H](O)[C@]1(C)O [Erythromycin, erythromycin] was tested, and the inhibition at 12.5 µM (human granulocytes; [1]) was 0%, the inhibition at 50 µM (human granulocytes; [1]) was 0% and the inhibition at 12.5 µM (human granulocytes; [2]) was 6%. The inhibition at 50 µM (human granulocytes; [2]) was 41%, the inhibition at 50 µM (granulocytes; A23187 0.5 μM stimulated) was 0% and the inhibition at 50 µM (granulocytes; fMLP 0.1 μM stimulated) was 23%.
CC[C@H]1OC(=O)[C@H](C)[C@@H](O[C@H]2C[C@@](C)(OC)[C@@H](O)[C@H](C)O2)[C@H](C)[C@@H](O[C@@H]2O[C@H](C)C[C@H](N(C)C)[C@H]2O)[C@](C)(O)C[C@@H](C)CN(C(=O)NC(C)c2cccc3ccccc23)[C@H](C)[C@@H](O)[C@]1(C)O (stereo partly shown) [Compound 12] was tested, and the “Percentage of viable cells after treatment” value (“Percentage of viable cells” for short) (A549; 12.5 μM) was 94%, the “Percentage of viable cells” value (A549; 50 μM) was 72% and the “Percentage of viable cells” value (Hep G2; 12.5 μM) was 93%. The “Percentage of viable cells” value (Hep G2; 50 μM) was 8%, the inhibition at 10 µM (IL-8; LPS stimulated) was 15% and the inhibition at 50 µM (IL-8; LPS stimulated) was 100%. It also gave an inhibition at 10 µM (IL-8; zymosan stimulated) of 40%, an inhibition at 50 µM (IL-8; zymosan stimulated) of 100% and an inhibition at 10 µM (TNF-α; LPS stimulated) of 28%. It also gave an inhibition at 50 µM (TNF-α; LPS stimulated) of 100%, an inhibition at 10 µM (TNF-α; zymosan stimulated) of 70% and an inhibition at 50 µM (TNF-α; zymosan stimulated) of 100%. For the same compound, the inhibition at 10 µM (IL-1α; LPS stimulated) was 52%, the inhibition at 50 µM (IL-1α; LPS stimulated) was 82% and the inhibition at 10 µM (IL-1α; zymosan stimulated) was 80%. It also gave an inhibition at 50 µM (IL-1α; zymosan stimulated) of 100%, an inhibition at 10 µM (IL-6; LPS stimulated) of 6% and an inhibition at 50 µM (IL-6; LPS stimulated) of 100%. It also gave an inhibition at 10 µM (IL-6; zymosan stimulated) of 88% and an inhibition at 50 µM (IL-6; zymosan stimulated) of 100%.
CC[C@H]1OC(=O)[C@H](C)[C@@H](O[C@H]2C[C@@](C)(OC)[C@@H](O)[C@H](C)O2)[C@H](C)[C@@H](O[C@@H]2O[C@H](C)C[C@H](N(C)C)[C@H]2O)[C@](C)(O)C[C@@H](C)CN(C(=O)Nc2ccc(C(F)(F)F)cc2)[C@H](C)[C@@H](O)[C@]1(C)O [Compound 9] was tested, and the “Percentage of viable cells” value (A549; 12.5 μM) was 100%, the “Percentage of viable cells” value (A549; 50 μM) was 100% and the “Percentage of viable cells” value (Hep G2; 12.5 μM) was 92%. The “Percentage of viable cells” value (Hep G2; 50 μM) was 21%, the inhibition at 10 µM (IL-8; LPS stimulated) was 0% and the inhibition at 50 µM (IL-8; LPS stimulated) was 100%. The inhibition at 10 µM (IL-8; zymosan stimulated) was 0%, the inhibition at 50 µM (IL-8; zymosan stimulated) was 100% and the inhibition at 10 µM (TNF-α; LPS stimulated) was 23%. It also gave an inhibition at 50 µM (TNF-α; LPS stimulated) of 100%, an inhibition at 10 µM (TNF-α; zymosan stimulated) of 39% and an inhibition at 50 µM (TNF-α; zymosan stimulated) of 100%. The inhibition at 10 µM (IL-1α; LPS stimulated) was 45%, the inhibition at 50 µM (IL-1α; LPS stimulated) was 43% and the inhibition at 10 µM (IL-1α; zymosan stimulated) was 65%. It also gave an inhibition at 50 µM (IL-1α; zymosan stimulated) of 22%, an inhibition at 10 µM (IL-6; LPS stimulated) of 0% and an inhibition at 50 µM (IL-6; LPS stimulated) of 100%. The inhibition at 10 µM (IL-6; zymosan stimulated) was 58% and the inhibition at 50 µM (IL-6; zymosan stimulated) was 100%.
